Source: patent US20120165376A1, “STABILIZED MICROBICIDAL COMPOSITION” (priority 2010, published 2012)

Tests used:
Format in all cases: physicochemical
[1] = Storage stability of formulations having 20% DBNPA, 6% BNPD and 1.25% CMI/MI (3:1): oven at 40° C., loss of biocides after 60 days; conditions: 6% BNPD
Description: These formulations were prepared from salt-free CMI/MI biocide, except as otherwise indicated. They were placed in an oven at 40° C. and analyzed for loss of the biocides after 60 days.

[2] = Storage stability of formulations having 20% DBNPA and 0.25% CMI/MI (3:1): oven at 45° C., loss after 28 days
Description: These formulations were prepared, using salt-free CMI/MI and placed in an oven at 45° C. and analyzed for loss of the biocides after 28 days.

[3] = Storage stability of formulations having 20% DBNPA and 6% BNPD: oven at 45° C., loss after 28 days
Description: These formulations were prepared and placed in an oven at 45° C. and analyzed for loss of the biocides after 28 days.

[4] = Storage stability of formulations having 10-20% DBNPA, without BNPD or CMI/MI: oven at 45° C., loss after 28 days
Description: These were prepared and placed in an oven at 45° C. and analyzed for loss of the biocides after 28 days. […]=diethylene glycol monomethyl ether.

[5] = glycerin 0%, water 10%, TEG-mono-butyl ether 59.5%
[6] = glycerin 0%, water 20%, TEG 49.5%
[7] = glycerin 0%, water 20%, TEG-mono-butyl ether 49.5%
[8] = glycerin 0%, water 30%, TEG 39.5%
[9] = glycerin 0%, water 30%, TEG-mono-butyl ether 39.5%
[10] = glycerin 10%, water 10%, TEG 49.5%
[11] = glycerin 10%, water 20%, TEG-mono-butyl ether 39.5%
[12] = glycerin 10%, water 30%, TEG-mono-butyl ether 29.5%
[13] = glycerin 20%, water 10%, TEG 39.5%
[14] = glycerin 20%, water 20%, TEG 29.5%
[15] = glycerin 0%, water 20%, DPG 54, 20% DBNPA
[16] = glycerin 0%, water 20%, TetEG 54, 20% DBNPA
[17] = glycerin 10%, water 5%, DPG 60, 20% DBNPA
[18] = glycerin 10%, water 5%, TetEG 60, 20% DBNPA
[19] = glycerin 10%, water 10%, DPG 54, 20% DBNPA
[20] = glycerin 10%, water 10%, TetEG 54, 20% DBNPA
[21] = glycerin 20%, water 10%, DPG 44, 20% DBNPA
[22] = glycerin 20%, water 10%, TEG 44, 20% DBNPA
[23] = glycerin 20%, water 10%, TetEG 44, 20% DBNPA
[24] = glycerin 30%, water 5%, DPG 39, 20% DBNPA
[25] = glycerin 30%, water 5%, TetEG 39, 20% DBNPA
[26] = glycerin 30%, water 10%, DPG 34, 20% DBNPA
[27] = glycerin 30%, water 10%, TetEG 34, 20% DBNPA
[28] = glycerin 30%, water […]%, DPG 29, 20% DBNPA, result believed to be erroneous
[29] = glycerin 30%, water […]%, TetEG 29, 20% DBNPA

With `N#CC(Br)(Br)C(N)=O` [DBNPA, 2,2-dibromo-3-nitrilopropionamide] as the molecule, how does the “DBNPA loss, %” value [1, 5] read?
The value was 40%.

And the “DBNPA loss, %” value [1, 6]?
Its value is 10%.

What about the “DBNPA loss, %” value [1, 7] of the same molecule?
The value was 18%.

And the “DBNPA loss, %” value [1, 8]?
Its value is 16%.

And the “DBNPA loss, %” value [1, 9]?
The value was 18%.

What about the “DBNPA loss, %” value [1, 10] of the same molecule?
The value was 6%.

And the “DBNPA loss, %” value [1, 11]?
The value was 14%.

And the “DBNPA loss, %” value [1, 12]?
The value was 18%.

What about the “DBNPA loss, %” value [1, 13] of the same molecule?
The value was 5%.

And the “DBNPA loss, %” value [1, 14]?
Its value is 14%.

And the “DBNPA loss, %” value ([2]; glycerin 0%, water 20%, DPG 59, 20% DBNPA, 0.25% CMI/MI (3:1))?
Its value is 10%.

What about the “DBNPA loss, %” value ([2]; glycerin 0%, water 20%, TetEG 59, 20% DBNPA, 0.25% CMI/MI (3:1)) of the same molecule?
Its value is 4%.

And the “DBNPA loss, %” value ([2]; glycerin 10%, water 5%, DPG 64, 20% DBNPA, 0.25% CMI/MI (3:1), result believed to be erroneous)?
Its value is 27^1%.

What about the “DBNPA loss, %” value ([2]; glycerin 10%, water 5%, TetEG 64, 20% DBNPA, 0.25% CMI/MI (3:1)) of the same molecule?
The value was 2.5%.

What about the “DBNPA loss, %” value ([2]; glycerin 10%, water 10%, DPG 59, 20% DBNPA, 0.25% CMI/MI (3:1)) of the same molecule?
Its value is 7%.

What about the “DBNPA loss, %” value ([2]; glycerin 10%, water 10%, TetEG 59, 20% DBNPA, 0.25% CMI/MI (3:1)) of the same molecule?
Its value is 3.5%.

What about the “DBNPA loss, %” value ([2]; glycerin 20%, water 10%, DPG 49, 20% DBNPA, 0.25% CMI/MI (3:1)) of the same molecule?
The value was 3.5%.

What about the “DBNPA loss, %” value ([2]; glycerin 20%, water 10%, TEG 49, 20% DBNPA, sample had 1% CMI/MI) of the same molecule?
Its value is 6%.

And the “DBNPA loss, %” value ([2]; glycerin 20%, water 10%, TetEG 49, 20% DBNPA, 0.25% CMI/MI (3:1))?
Its value is 3.5%.

What about the “DBNPA loss, %” value ([2]; glycerin 30%, water 5%, DPG 44, 20% DBNPA, 0.25% CMI/MI (3:1)) of the same molecule?
Its value is 6%.

And the “DBNPA loss, %” value ([2]; glycerin 30%, water 5%, TetEG 44, 20% DBNPA, 0.25% CMI/MI (3:1))?
The value was 6%.

And the “DBNPA loss, %” value ([2]; glycerin 30%, water 10%, DPG 39, 20% DBNPA, 0.25% CMI/MI (3:1))?
The value was 4%.

And the “DBNPA loss, %” value ([2]; glycerin 30%, water 10%, TetEG 39, 20% DBNPA, 0.25% CMI/MI (3:1))?
The value was 2.5%.

What about the “DBNPA loss, %” value ([2]; glycerin 30%, water 20%, DPG 29, 20% DBNPA, 0.25% CMI/MI (3:1)) of the same molecule?
The value was 4%.

And the “DBNPA loss, %” value ([2]; glycerin 30%, water 20%, TetEG 29, 20% DBNPA, 0.25% CMI/MI (3:1))?
Its value is 3.5%.

What about the “DBNPA loss, %” value ([2]; glycerin 30%, water […]%, DPG 34, 20% DBNPA, 0.25% CMI/MI (3:1)) of the same molecule?
The value was 3.5%.

And the “DBNPA loss, %” value ([2]; glycerin 30%, water […]%, TetEG 34, 20% DBNPA, 0.25% CMI/MI (3:1))?
The value was 3%.

And the “DBNPA loss, %” value [3, 15]?
Its value is 3.5%.

And the “DBNPA loss, %” value [3, 16]?
The value was 2%.

What about the “DBNPA loss, %” value [3, 17] of the same molecule?
Its value is 7%.

What about the “DBNPA loss, %” value [3, 18] of the same molecule?
Its value is 5%.

And the “DBNPA loss, %” value [3, 19]?
Its value is 6%.

And the “DBNPA loss, %” value [3, 20]?
The value was 7%.

What about the “DBNPA loss, %” value [3, 21] of the same molecule?
Its value is 3%.

And the “DBNPA loss, %” value [3, 22]?
Its value is 7%.

And the “DBNPA loss, %” value [3, 23]?
Its value is 7%.

And the “DBNPA loss, %” value [3, 24]?
Its value is 2%.

And the “DBNPA loss, %” value [3, 25]?
Its value is 2.5%.

What about the “DBNPA loss, %” value [3, 26] of the same molecule?
Its value is 3%.

What about the “DBNPA loss, %” value [3, 27] of the same molecule?
The value was 3%.

And the “DBNPA loss, %” value [3, 28]?
The value was 14^1%.

What about the “DBNPA loss, %” value [3, 29] of the same molecule?
The value was 4.5%.

What about the “DBNPA loss, %” value ([4]; glycerin 30%, water 5%, TEG 45, 20% DBNPA) of the same molecule?
The value was 3^ %.

What about the “DBNPA loss, %” value ([4]; glycerin 45%, water 5%, TEG 30, 20% DBNPA) of the same molecule?
Its value is 3^ %.

What about the “DBNPA loss, %” value ([4]; glycerin 65%, water […]%, DEGMME 10, only 10% DBNPA) of the same molecule?
Its value is 95^1%.

And the “DBNPA loss, %” value ([4]; glycerin 65%, water […]%, TEG 10, only 10% DBNPA)?
Its value is 3^1%.

And the “DBNPA loss, %” value ([4]; glycerin 65%, water […]%, TetEG 10, only 10% DBNPA)?
Its value is 95^1%.

Which “BNPD loss, %” value ([1]; glycerin 0%, water 10%, TEG 59.5%) does the source give for `O=[N+]([O-])C(Br)(CO)CO` [BNPD, 2-bromo-2-nitro-1,3-propanediol] here?
Its value is 3%.

And the “BNPD loss, %” value [1, 5]?
The value was 0%.

What about the “BNPD loss, %” value [1, 6] of the same molecule?
Its value is 1%.

And the “BNPD loss, %” value [1, 7]?
Its value is 0%.

And the “BNPD loss, %” value [1, 8]?
The value was 3%.

What about the “BNPD loss, %” value [1, 9] of the same molecule?
Its value is 3%.

What about the “BNPD loss, %” value [1, 10] of the same molecule?
The value was 3%.

What about the “BNPD loss, %” value ([1]; glycerin 10%, water 10%, TEG-mono-butyl ether 49.5%) of the same molecule?
The value was 3%.

What about the “BNPD loss, %” value ([1]; glycerin 10%, water 20%, TEG 39.5%) of the same molecule?
The value was 3%.

And the “BNPD loss, %” value [1, 11]?
The value was 3%.

What about the “BNPD loss, %” value [1, 12] of the same molecule?
Its value is 4%.

What about the “BNPD loss, %” value [1, 13] of the same molecule?
Its value is 3%.

What about the “BNPD loss, %” value ([1]; glycerin 20%, water 10%, TEG-mono-butyl ether 39.5%) of the same molecule?
Its value is 3%.

What about the “BNPD loss, %” value [1, 14] of the same molecule?
The value was 4%.

What about the “BNPD loss, %” value [3, 15] of the same molecule?
Its value is 1.5%.

What about the “BNPD loss, %” value ([3]; glycerin 0%, water 20%, TEG 54, 20% DBNPA) of the same molecule?
The value was 7%.

What about the “BNPD loss, %” value [3, 16] of the same molecule?
The value was 0%.

And the “BNPD loss, %” value [3, 17]?
Its value is 1%.

And the “BNPD loss, %” value [3, 18]?
The value was 6%.

What about the “BNPD loss, %” value [3, 19] of the same molecule?
The value was 0.5%.

What about the “BNPD loss, %” value [3, 20] of the same molecule?
The value was 8.5%.

And the “BNPD loss, %” value [3, 21]?
Its value is 1.5%.

And the “BNPD loss, %” value [3, 22]?
Its value is 4%.

And the “BNPD loss, %” value [3, 23]?
Its value is 3%.

What about the “BNPD loss, %” value [3, 24] of the same molecule?
Its value is 1.5%.

What about the “BNPD loss, %” value [3, 25] of the same molecule?
The value was 1.5%.

And the “BNPD loss, %” value [3, 26]?
Its value is 1%.

What about the “BNPD loss, %” value [3, 27] of the same molecule?
The value was 2%.

And the “BNPD loss, %” value [3, 28]?
Its value is 12.5^1%.

And the “BNPD loss, %” value [3, 29]?
The value was 3.5%.
